Where two headings read alike, the source gives them in different places.
How the values were obtained:
Type in all cases: cell-based
Design in all cases: Percent inhibition compared to vehicle: concentration or dose not given beside the values
[1] = test system: MCF-7 cells (negative control); experiment: MCF-7 Stable Cell Line Viability (UbC HA-ER-α series); conditions: for EC50: Homo sapiens, MCF7, Receptor None (MCF-7 negative control); for Percent inhibition compared to vehicle / Efficacy (Emax): Receptor None (MCF-7 negative control)
Description: (§1) MCF-7 Mutant ER-α Stable Cell Line Generation: MCF-7 cells stably expressing wild-type or ER-α mutants were generated by subcloning ESR1 wild-type and mutant cDNAs containing an amino terminal hemagglutinin tag into pCDH-EF1-MCS-(PGK-Puro) (referred to as EF1 HA-ER-α) and pCDH-UbC-MCS-EF1-Hygro (referred to as UbC HA-ER-α) (System Biosciences). The resulting plasmids, in addition to an empty vector negative control, were subsequently cotransfected into HEK293T cells with the pPACKH1 packaging plasmid mix (System Biosciences) according to the manufacturer's protocol. Four days post transfection lentiviral particles were purified from the cell medium, tiered and stored at −80° C. MCF-7 cells were transduced with the purified viral particles and stable cell lines were selected by growth in RPMI containing 10% FBS plus 1 μG/mL puromycin or 200 μG/mL hygromycin for pCDH-EF1-MCS-(PGK-Puro) and pCDH-UbC-MCS-EF1-Hygro, respectively.
(§2) MCF-7 Stable Cell Line Viability: MCF-7 cells were enumerated with a hemacytometer adjusted to a concentration of 40,000 cells per mL in Phenol Free RPMI containing 10% CSS with NEAA and Sodium Pyruvate. 16 microliters of the cell suspension was added to each well of a 384 well tissue culture treated white clear bottom polystyrene plate (Corning) using a Matrix 16 channel electronic pipette. The cells were incubated overnight to allow the cells to adhere. The following day, 16 microliters of Phenol Free RPMI containing 10% CSS with NEAA and Sodium Pyruvate was added to the wells of one plate, followed by 16 μL of CellTiter-Glo (Promega, Madison Wis.) luminescent cell viability reagent using a Matrix 16 channel electronic pipette. […] The “average” of the relative luminescence units (RLUs) of the wells are considered to be the baseline value at time=zero. In addition, a 10 point, 1:5 serial dilution in DMSO (Sigma-Aldrich) was performed using Matrix 12 channel electronic pipette, including DMSO only as […]. 4 μL of each dilution was then added to 196 μL of RPMI containing 10% CSS with NEAA and Sodium Pyruvate. 16 μL of medium containing compound was added to the cells at a final concentration ranging from 10 μM to 5 pM. Compound dilution in media and subsequent addition to cells were carried out using Matrix 12 channel electronic pipettes. After 5 day compound exposure, 16 μL of CellTiter-Glo (Promega, Madison Wis.) luminescent cell viability reagent was added to the cells using a Matrix 16 channel electronic pipette. CellTiter-Glo added to 32 μL of medium without cells was used to obtain a background value. […] The relative luminescence units (RLUs) of each well were measured, and relative proliferation (fold) of each sample was determined as follows: (RLU sample−RLU background)/(RLU at T=0)=relative proliferation
(§3) The UbC promoter is reported by the manufacturer (System Biosciences) to express low to moderate RNA levels while the EF1 promoter expresses high levels (System Biosciences).

[2] = test system: MCF-7 cells stably expressing UbC HA-ER-α wild-type; experiment: as above; conditions: for EC50: Homo sapiens, MCF7, UbC HA-ER-α Wild-type, read-out: Potency (EC50; nM); for Percent inhibition compared to vehicle / Efficacy (Emax): UbC HA-ER-α Wild-type; for Percent inhibition compared to vehicle: 5-Day Incubation; for Efficacy (Emax): Day 5 relative to Day 0
Description: as §1, §2, §3

[3] = test system: MCF-7 cells stably expressing EF1 HA-ER-α L536P; experiment: cells; conditions: for Percent inhibition compared to vehicle / Efficacy (Emax): EF1 HA-ER-α L536P; for Percent inhibition compared to vehicle: 5-Day Incubation; for Efficacy (Emax): Day 5 relative to Day 0; for EC50: Homo sapiens, MCF7, EF1 HA-ER-α L536P, read-out: Potency (EC50; nM)
Description: as §1, §2, §3

[4] = test system: MCF-7 cells stably expressing EF1 HA-ER-α L536R; experiment: cells; conditions: for Percent inhibition compared to vehicle / Efficacy (Emax): EF1 HA-ER-α L536R; for Percent inhibition compared to vehicle: 5-Day Incubation; for Efficacy (Emax): Day 5 relative to Day 0; for EC50: Homo sapiens, MCF7, EF1 HA-ER-α L536R, read-out: Potency (EC50; nM)
Description: as §1, §2, §3

[5] = test system: MCF-7 cells stably expressing EF1 HA-ER-α Y537N; experiment: cells; conditions: for Percent inhibition compared to vehicle: 5-Day Incubation; for EC50: Homo sapiens, MCF7, EF1 HA-ER-α Y537N, read-out: Potency (EC50; nM)
Description: as §1, §2, §3

[6] = test system: MCF-7 cells stably expressing UbC HA-ER-α L536P; experiment: cells; conditions: for EC50: Homo sapiens
Description: as §1, §2, §3

[7] = test system: MCF-7 cells stably expressing EF1 HA-ER-α wild-type; experiment: MCF-7 Stable Cell Line Viability (EF1 HA-ER-α series); conditions: for Percent inhibition compared to vehicle / Efficacy (Emax): EF1 HA-ER-α Wild-type; for Percent inhibition compared to vehicle: 5-Day Incubation; for Efficacy (Emax): Day 5 relative to Day 0; for EC50: Homo sapiens, MCF7, EF1 HA-ER-α Wild-type, read-out: Potency (EC50; nM)
Description: as §1, §2, §3

[8] = test system: MCF-7 cells transduced with an empty EF1 lentiviral vector (negative control); experiment: as above; conditions: for EC50: Homo sapiens, MCF7, Receptor None (empty EF1 lentiviral vector), read-out: Potency (EC50; nM); for Percent inhibition compared to vehicle / Efficacy (Emax): Receptor None (empty EF1 lentiviral vector); for Percent inhibition compared to vehicle: 5-Day Incubation; for Efficacy (Emax): Day 5 relative to Day 0
Description: as §1, §2, §3

[9] = Agonist Mode, −E2, 5-Day Incubation
[10] = Agonist Mode, −E2, Day 5 relative to Day 0
[11] = Antagonist Mode, +E2, 5-Day Incubation
[12] = Antagonist Mode, +E2, Day 5 relative to Day 0

SMILES: CC/C(=C(/c1ccc(/C=C/C(=O)O)cc1)c1ccc2[nH]ncc2c1)c1ccc(F)cc1Cl [Compound 1-3, (E)-3-(4-((E)-2-(2-chloro-4-fluorophenyl)-1-(1H-indazol-5-yl)but-1-en-1-yl)phenyl)acrylic acid]
- EC50 ([1]; Agonist Mode, −E2, read-out: Potency (EC50; nM)): 0.603 ± 0.74 nM
- EC50 ([1]; Antagonist Mode, +E2, read-out: Potency (EC50; nM)): 4.84 ± 4.42 nM
- Percent inhibition compared to vehicle [1, 9]: 30%
- Efficacy (Emax) [1, 10]: 1.23 ± 0.88
- Percent inhibition compared to vehicle [1, 11]: 70%
- Efficacy (Emax) [1, 12]: 0.97 ± 0.01
- EC50 ([2]; Agonist Mode, −E2): 0.58 ± 0.386 nM
- EC50 ([2]; Antagonist Mode, +E2): 5.5 ± 6.28 nM
- Percent inhibition compared to vehicle ([2]; Agonist Mode, −E2): 37%
- Efficacy (Emax) ([2]; Agonist Mode, −E2): 1.17 ± 0.17
- Percent inhibition compared to vehicle ([2]; Antagonist Mode, +E2): 76%
- Efficacy (Emax) ([2]; Antagonist Mode, +E2): 1.16 ± 0.03
- Percent inhibition compared to vehicle ([3]; Agonist Mode, −E2): 57%
- Efficacy (Emax) ([3]; Agonist Mode, −E2): 3.54 ± 0.45
- Percent inhibition compared to vehicle ([3]; Antagonist Mode, +E2): 59%
- Efficacy (Emax) ([3]; Antagonist Mode, +E2): 3.74 ± 0.53
- EC50 ([3]; Agonist Mode, −E2): 18.2 ± 3.29 nM
- EC50 ([3]; Antagonist Mode, +E2): 41.9 ± 8.25 nM
- Percent inhibition compared to vehicle ([4]; Agonist Mode, −E2): 47%
- Efficacy (Emax) ([4]; Agonist Mode, −E2): 3.61 ± 0.24
- Percent inhibition compared to vehicle ([4]; Antagonist Mode, +E2): 45%
- Efficacy (Emax) ([4]; Antagonist Mode, +E2): 3.77 ± 0.48
- EC50 ([4]; Agonist Mode, −E2): 10.4 ± 6.52 nM
- EC50 ([4]; Antagonist Mode, +E2): 15.6 ± 6.9 nM
- Percent inhibition compared to vehicle ([5]; EF1 HA-ER-α Y537N, Agonist Mode, −E2): 48%
- Efficacy (Emax) ([5]; EF1 HA-ER-α Y537N, Agonist Mode, −E2, Day 5 relative to Day 0): 3.11 ± 0.28
- Percent inhibition compared to vehicle ([5]; EF1 HA-ER-α Y537N, Antagonist Mode, +E2): 44%
- EC50 ([5]; Agonist Mode, −E2): 97.3 ± 46.9 nM
- EC50 ([5]; Antagonist Mode, +E2): 125 ± 35.5 nM
- Percent inhibition compared to vehicle [6, 9]: 50%
- Efficacy (Emax) [6, 10]: 1.58 ± 0.16
- Percent inhibition compared to vehicle [6, 11]: 72%
- Efficacy (Emax) [6, 12]: 1.69 ± 0.10
- EC50 ([6]; MCF7, Agonist Mode, −E2, read-out: Potency (EC50; nM)): 0.713 ± 0.487 nM
- EC50 ([6]; MCF7, read-out: Potency (EC50; nM), Antagonist Mode, +E2): 7.37 ± 3.93 nM
- Percent inhibition compared to vehicle ([7]; Agonist Mode, −E2): 48%
- Efficacy (Emax) ([7]; Agonist Mode, −E2): 2.97 ± 0.50
- Percent inhibition compared to vehicle ([7]; Antagonist Mode, +E2): 59%
- Efficacy (Emax) ([7]; Antagonist Mode, +E2): 2.78 ± 0.26
- EC50 ([7]; Agonist Mode, −E2): 2.84 ± 1.36 nM
- EC50 ([7]; Antagonist Mode, +E2): 28 ± 10.3 nM
- EC50 ([8]; Agonist Mode, −E2): 0.828 ± 0.347 nM
- EC50 ([8]; Antagonist Mode, +E2): 9.27 ± 3.93 nM
- Percent inhibition compared to vehicle ([8]; Agonist Mode, −E2): 54%
- Efficacy (Emax) ([8]; Agonist Mode, −E2): 1.03 ± 0.14
- Percent inhibition compared to vehicle ([8]; Antagonist Mode, +E2): 75%
- Efficacy (Emax) ([8]; Antagonist Mode, +E2): 1.01 ± 0.12
